Assay [1] has as its system IFN-β secretion by PANC-1 cells. Kind of assay: IFN-β release ELISA. It is filed as cell-based, human. To be noted: 300 to 2 μM, 24 h, n = 3. The procedure: PANC-1 cells were seeded 5 × 10^4 cells/well in a 96-well plate and incubated overnight at 37°C in a 5% CO2 atmosphere. Cells were then treated with BOP7, BOP9, daunorubicin hydrochloride (Sigma Aldrich) and irinotecan hydrochloride (Sigma Aldrich) at different concentrations (from 300 to 2 μM) and left for 24 h at 37°C. At the same time, a DuoSet ELISA plate (R&D Systems Inc., Minneapolis, MN, United States) for the detection of IFN-β was prepared following the manufacturer’s instructions. The plate was sensitized with 100 μL/well of capture antibody for 24 h. PANC-1 supernatants were collected and centrifuged for 5 min at 1,200 rpm, added to the DuoSet plate at 100 μL/well and incubated for 2 h at room temperature. The detection antibody conjugated with streptavidin-peroxidase was then added. After adding the substrate solution, the plate was read at 450 nm using a microplate spectrophotometer (Multiskan, Thermo Scientific). Data was analysed using GraphPad Prism version 9.5.0 software.
Background: In an ELISA, binding on a coated surface is turned into a signal by an enzyme label.

Assay [2] concerns ATP release by PANC-1 cells. The assay is described as follows: Extracellular ATP bioluminescence assay. The class given is cell-based, human. The conditions noted are these: 50 μM. The procedure: PANC-1 cells were seeded (10 × 10^3 cells/well) in an opaque-walled 96-well plate and incubated overnight at 37°C in a 5% CO2 atmosphere. The following day, each well was treated with 150 μL BOP7, BOP9, daunorubicin hydrochloride (Sigma Aldrich) or irinotecan hydrochloride (cod. PHR2717, Sigma Aldrich) at different concentrations (from 50 to 2 μM). At the same time, each well was incubated with 50 μL RealTime-Glo Extracellular ATP Reagent Substrate (Promega). The plate was incubated at 37° and bioluminescence was measured at 560 nm at different time intervals with a VICTOR NIVO 5S luminometer (Perkin Elmer, Waltham, MA, United States). Data was analysed using GraphPad Prism version 9.5.0 software.

Assay [3] has as its system HMGB1 release by PANC-1 cells. The assay is described as follows: HMGB1 release ELISA. It is filed as cell-based, human. To be noted: 300 to 2 μM, 24 h, ELISA of supernatants, n = 3. The procedure: PANC-1 cells were seeded 5 × 10^4 cells/well in a standard 96-well plate and incubated overnight at 37°C in a 5% CO2 atmosphere. Then they were treated with BOP7, BOP9, daunorubicin hydrochloride (Sigma Aldrich) and irinotecan hydrochloride (Sigma Aldrich) at different concentrations (from 300 to 2 μM in 200 μL) and left for 24 h at 37°C. The following day, release of HMGB1 in the culture medium was assessed with an HMGB1 ELISA kit (IBL International, Hamburg, Germany) in the PANC-1 supernatants, according to the manufacturer’s instructions. Optical density was measured at 450 nm with a microplate spectrophotometer (Multiskan, Thermo Scientific). Data was analysed using GraphPad Prism version 9.5.0 software.

The subject of the next assay is CHO-K1 cells. The class given is cell-based, chinese hamster. The conditions noted are these: 24 h. The procedure: PANC-1, PANC-1-luc2, Mia PaCa-2 or CHO-K1 cells were seeded 5 × 10^4 cells/well in a standard 96-well plate and incubated overnight at 37°C, 5% CO2 atmosphere. […] PANC-1 and Mia PacCa-2 were also tested with linear peptides L7 and L9 at concentrations ranging from 781 to 0.5 μM under the same conditions. Growth inhibition was assessed with a MMT assay (3-(4,5-dimethylthiazol-2-yl)-2,5-diphenyltetrazolium bromide) (Sigma Aldrich). Optical density was measured at 595 and 650 nm with a microplate spectrophotometer (Multiskan, Thermo Scientific). Experiments were repeated twice in quintuplicate. Cell viability was measured by comparing values of treated and untreated cells. IC50 values were calculated by non-linear regression analysis using GraphPad Prism version 9.5.0 software.

The next assay deals with Mia PaCa-2 cells. The class given is cell-based, human. The conditions noted are these: 24 h. The procedure:
(§1) PANC-1, PANC-1-luc2, Mia PaCa-2 or CHO-K1 cells were seeded 5 × 10^4 cells/well in a standard 96-well plate and incubated overnight at 37°C, 5% CO2 atmosphere. Each well was treated with 200 μL BOP7 or BOP9 at different concentrations (from 100 to 0.08 μM) and incubated for 24 h. PANC-1 and Mia PacCa-2 were also tested with linear peptides L7 and L9 at concentrations ranging from 781 to 0.5 μM under the same conditions. Growth inhibition was assessed with a MMT assay (3-(4,5-dimethylthiazol-2-yl)-2,5-diphenyltetrazolium bromide) (Sigma Aldrich). Optical density was measured at 595 and 650 nm with a microplate spectrophotometer (Multiskan, Thermo Scientific). Experiments were repeated twice in quintuplicate. Cell viability was measured by comparing values of treated and untreated cells. IC50 values were calculated by non-linear regression analysis using GraphPad Prism version 9.5.0 software.

The test system of another assay is PANC-1 cells. It is filed as cell-based, human. To be noted: 24 h. The procedure:
as §1

We go through 4 compounds from publication PMC11479992, “Branched oncolytic peptides target HSPGs, inhibit metastasis, and trigger the release of molecular determinants of immunogenic cell death in pancreatic cancer” (Frontiers in Molecular Biosciences, 2024).

pIC50: −log10 of the molar value. Counter-ions that a name gives are not always drawn. Bridges are numbered along the chain shown (N, C = ends). Roman numbers before positions name the chains, in order. Where no end group is shown, it is not given here.

For `CCc1c2c(nc3ccc(OC(=O)N4CCC(N5CCCCC5)CC4)cc13)-c1cc3c(c(=O)n1C2)COC(=O)[C@]3(O)CC` [irinotecan, irinotecan hydrochloride], the IFN-β release entry in assay [1] is on record as “did not result in a statistically significant release”.

`COc1cccc2c1C(=O)c1c(O)c3c(c(O)c1C2=O)C[C@@](O)(C(C)=O)C[C@@H]3O[C@H]1C[C@H](N)[C@H](O)[C@H](C)O1` [daunorubicin, daunorubicin hydrochloride]: in assay [2], the “time after which ATP release returned to baseline” value amounted to 6 h and the “time of peak of ATP release” value worked out at 3 h. In addition, the ATP release entry in assay [2] (bioluminescence over time) is given as “most effective agent”. Also, the IFN-β release result in assay [1] is recorded as “did not result in a statistically significant release”. Also, the HMGB1 release entry in assay [3] is listed as “most effective inducer even at the lowest concentrations”.

As usually defined, the pIC50 is −log10 of the IC50, conventionally taken in molar units. Read a low pIC50 as a high IC50. For “I: LLKKKFKKLQKK-NH2 / II: LLKKKFKKLQK / III: LLKKKFKKLQ / IV: LLKKKFKKLQ (amide I:11-IV:C, I:12-II:C, II:11-III:C) [BOP7]”, the pIC50 in the assay on CHO-K1 cells was 2.30; with Mia PaCa-2 cells, 4.56; with PANC-1 cells, 5.78.

Turning to “I: KKKLKFKKLQKK-NH2 / II: KKKLKFKKLQK / III: KKKLKFKKLQ / IV: KKKLKFKKLQ (amide I:11-IV:C, I:12-II:C, II:11-III:C) [BOP9]”, the pIC50 in the assay on CHO-K1 cells was 1.80; with Mia PaCa-2 cells it was 4.75; with PANC-1 cells, 5.08.
